Each structure is given as a SMILES string. A value given as a limit tells only on which side of the number the result lay.

Experimental findings from patent EP2402358A2, “2',3'-Didehydro-3'-deoxy-4'-ethynylothymidine derivatives for treatment infections caused by human immunodeficiency virus (HIV) multidrug resistant strains, method of their synthesis and pharmaceutically acceptable forms of drugs” (priority 2010, dated 2012) are described below.

For data set [1], the system named is HIV-1 virus strain Resistant 7005695. The following applies: Resistance factor Rf=EC50 mutant / EC50 wt virus. The text has this: (§1) Determination of antiviral activity
(§2) Fully infectious virus HIV-1 was produced from cloned proviral DNA reference coding either for wild-type HIV-1 or from drug-resistant virus following transfection of proviral DNA into recipient mammalian cells. Subsequent to viral protein expression and particle formation, culture supernatant was harvested and used to infect an indicator cell line. This latter cell line expresses all necessary receptors and co-receptors for HIV infection as well as the bacterial gene LacZ coding for β-galactosidase under the control of the HIV-1 long terminal repeat. In this system, amount of β-galactosidase is directly proportional to the extent of viral replication. Activity of β-galactosidase is assayed in presence of a colorless substrate which upon enzymatic conversion yields a yellow product absorbing at 405 nm. Next, variation in colorimetric readout in presence of test compounds was translated in percent viral inhibition following normalization according to absorbance values of positive (presence of anti-HIV drug) and negative (untreated) control wells included in each 96 well-plate. […] Percent inhibition data in function of drug concentration were processed by a statistical curve fitting software yielding a modeled curve from which EC50 was extrapolated.
(§3) Resistance factor Rf=EC50 mutant / EC50 wt virus

The test system of data set [2] is HIV-1 virus strain Resistant QCR8. As to conditions: Resistance factor Rf=EC50 mutant / EC50 wt virus.
Excerpt: as §1, §2, §3

Data set [3] can be described thus: Determination of cytotoxicity: Alamar Blue Cell Viability Assay. In kind it is cell-based. As to conditions: deciphr cells. The text has this:
(§4) Determination of cytotoxicity: Alamar Blue™ Cell Viability Assay
(§5) The Alamar Blue™ Cell Viability Assay (Invitrogen) is a fluorimetric metod for determining the number of viable cells. The Alamar Blue Reagent contains the cell permeable non-fluorescent blue dye resazurin, which is converted to the pink and fluorescent dye resorufin in response to the action of reductases located in the cytosol, mitochondria and endoplasmic reticulum. Therefore, only living cells will convert resazurin into resorufin. Assays are performed by adding 20 µL of the Alamar Blue Reagent directly to culture wells followed by a 6-hour incubation at 37°C. The fluorescent signal is monitored using 545 nm excitation wavelength and 590 nm emission wavelength. The quantity of resofurin product as measured by fluorescence is directly proportional to the number of living cells in culture, what allows to calculate CC50 value.
Background: Alamar Blue is a resazurin reagent that responds to reducing activity.

In data set [4] the test system is Wild type HIV-1 (NL4-3 cytotropic strain, CXCR4 - tropic). Description: Determination of antiviral activity (beta-galactosidase reporter indicator cell line, deClPhR cell system), wild type virus. In kind it is cell-based. The following applies: Human immunodeficiency virus 1, NL43.
Excerpt: as §1

For another data set, the system named is deClPhR™ cells. Kind of data set: Determination of cytotoxicity: Alamar Blue Cell Viability Assay. It is filed as cell-based. The following applies: Cytotoxicity; PNL4-3; deClPhR™ cells.
Excerpt: as §4, §5

`C#C[C@@]1(CO)C=C[C@H](n2cc(C)c(=O)[nH]c2=O)O1` [4'-E-d4T (WA32), 2',3'-didehydro-3'-deoxy-4'-ethynylothymidine]: the figures for the “Rf*” value in data set [1] and in data set [2] were 17.3 and 1.4, respectively. Besides, in data set [3] (Cytotoxicity, PNL4-3, deClPhR™ cells), the CC50 – broadly, the concentration at which the toxic effect on the cells reaches its halfway point – was over 200000 nM. For the same compound, the EC50 (usually the concentration needed to bring the measured effect to its halfway point) in data set [4] was 90 nM.
`C#C[C@@]1(COC(=O)CCCCCCCCCCCCC)C=C[C@H](n2cc(C)c(=O)[nH]c2=O)O1` [WA37, 1-(2,3-dideoxy-2,3-didehydro-4-ethynyl-5-O-tetradodecanoyl-bb-D-ribofuranosyl)-thymine]: the “Rf*” value in data set [1] was found to be 23.7; in data set [2] it was 1.3. In addition, the CC50 (in data set [3] (cytotoxicity in deClPhR™ cells); in the data set on deClPhR™ cells) was over 200000 nM in each case. The same compound gave an EC50 in data set [4] of 54 nM.
Take `C#C[C@@]1(COC(=O)CCCCCCCCCCCBr)C=C[C@H](n2cc(C)c(=O)[nH]c2=O)O1` [WA38, 1-(5-O-(12-bromododecanoyl)-2,3-dideoxy-2,3-didehydro-4-ethynyl-bb-D-ribofuranosyl)-thymine]: the “Rf*” value is listed as 10.4 in data set [1] and 1 in data set [2]. The half-maximal cytotoxic concentration (CC50) (in data set [3] (cytotoxicity in deClPhR™ cells); in the data set on deClPhR™ cells) was over 200000 nM in each case. The compound also had an EC50 in data set [4] of 130 nM.
Regarding `C#C[C@@]1(COC(=O)CCCCCCCCCCCN=[N+]=[N-])C=C[C@H](n2cc(C)c(=O)[nH]c2=O)O1` [WA39, 1-(5-O-(12-azidododecanoyl)-2,3-dideoxy-2,3-didehydro-4-ethynyl-bb-D-ribofuranosyl)-thymine], the results for the “Rf*” value in data set [1] and in data set [2] were 12.2 and 0.8, respectively. The CC50 (in data set [3] (cytotoxicity in deClPhR™ cells); in the data set on deClPhR™ cells) was over 200000 nM in each case. This compound also had an EC50 in data set [4] of 73 nM.
For `C#C[C@@]1(COC(=O)CCCCCCCCCCCOC)C=C[C@H](n2cc(C)c(=O)[nH]c2=O)O1` [WA40, 1-(2,3-dideoxy-2,3-didehydro-4-ethynyl-5-O-(12-methoxydodecanoyl)-bb-D -ribofuranosy)-thymine], the results for the “Rf*” value in data set [1] and in data set [2] were 17.4 and 2.3, respectively. Besides, the cytotoxic concentration (CC50) (in data set [3] (cytotoxicity in deClPhR™ cells); in the data set with deClPhR™ cells) was over 200000 nM each time. The compound also yielded an EC50 in data set [4] of 48 nM.
On to `C#C[C@@]1(COC(=O)CCCCCCCCCCSCC)C=C[C@H](n2cc(C)c(=O)[nH]c2=O)O1` [WA42], for which the figures for the “Rf*” value in data set [1] and in data set [2] were 16.1 and 2.3, respectively. Also, the CC50 (in data set [3] (cytotoxicity in deClPhR™ cells); in the data set on deClPhR™ cells) was over 200000 nM throughout. For the same compound, a half-maximal effect in data set [4] (EC50) was put at 43 nM.
